Consider three molecules from PMC12621200, “Giving an Enzyme Scissors: Serotonin Derivatives as Potent Organocatalytic Switches for DNA Repair Enzyme OGG1” (Journal of Medicinal Chemistry, 2025).

Series [1] concerns the target T1, OGG1 (Homo sapiens, UniProt O15527).
T1 construct: made in house
In words: Biochemical fluorescence (fluorophore-quencher) assay of OGG1 incision rate, 8-oxoA substrate. The settings on record: for AcLE: (1.37/#heavy atoms) × pAC50; for AC50: concentration giving 50% of the incision rate of OGG1 with APE1 (2 nM) control.

Series [2] relates to panel of DNA glycosylases and NUDIX nucleotide binding proteins. The series can be described thus: Selectivity: lowest IC50 in glycosylase/NUDIX panel divided by OGG1 AC50. The format is biochemical. The settings on record: lowest IC50 against panel / OGG1 AC50.
Another series concerns the target T2, NUDT15 (Homo sapiens, UniProt Q9NV35).
T2 construct: made in house
T2 sequence (Q9NV35 1-164): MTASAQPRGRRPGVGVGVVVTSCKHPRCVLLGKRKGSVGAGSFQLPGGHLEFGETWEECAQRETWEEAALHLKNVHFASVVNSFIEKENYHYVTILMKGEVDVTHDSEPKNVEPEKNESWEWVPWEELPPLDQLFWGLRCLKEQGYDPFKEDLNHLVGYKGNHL
In words: Selectivity screen, malachite green assay. It is filed as biochemical. The settings on record: compound 30 at 99 µM.

A further series has as its target T3, NUDT22 (Homo sapiens, UniProt Q9BRQ3).
T3 construct: made in house
T3 sequence (Q9BRQ3 1-303): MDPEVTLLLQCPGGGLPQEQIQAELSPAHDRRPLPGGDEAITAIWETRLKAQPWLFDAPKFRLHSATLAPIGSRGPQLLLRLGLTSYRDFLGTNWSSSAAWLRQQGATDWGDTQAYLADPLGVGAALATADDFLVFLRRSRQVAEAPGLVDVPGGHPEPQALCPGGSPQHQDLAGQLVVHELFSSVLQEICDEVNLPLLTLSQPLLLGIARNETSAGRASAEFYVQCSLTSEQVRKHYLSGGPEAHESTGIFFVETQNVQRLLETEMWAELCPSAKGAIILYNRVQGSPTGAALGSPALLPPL
The series can be described thus: Selectivity screen, malachite green assay. The format is biochemical. To be noted: compound 30 at 99 µM.

The target of a further series is T4, NUDT5 (Homo sapiens, UniProt Q9UKK9).
T4 construct: made in house
In words: Selectivity screen, malachite green assay. It is filed as biochemical. To be noted: compound 30 at 99 µM.

A further series deals with T5, APE1 (Homo sapiens, UniProt P27695).
T5 construct: made in house
T5 sequence (P27695 whole entry, species assumed): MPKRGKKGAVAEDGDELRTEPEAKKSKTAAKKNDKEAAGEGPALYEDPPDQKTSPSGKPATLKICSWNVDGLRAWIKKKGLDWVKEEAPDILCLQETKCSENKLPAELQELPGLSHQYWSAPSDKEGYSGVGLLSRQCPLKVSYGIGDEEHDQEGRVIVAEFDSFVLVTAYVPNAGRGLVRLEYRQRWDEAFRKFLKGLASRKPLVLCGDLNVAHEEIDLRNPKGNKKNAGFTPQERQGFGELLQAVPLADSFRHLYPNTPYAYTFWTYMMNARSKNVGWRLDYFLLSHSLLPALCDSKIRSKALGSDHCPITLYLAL
The series can be described thus: Selectivity screen. The format is biochemical. To be noted: compound 30 at 99 µM.

Another series has as its target MTH1 (Homo sapiens, UniProt P36639). In words: Selectivity screen. It is filed as biochemical. To be noted: compound 30 at 99 µM.
The next series has as its target T6, MPG (Homo sapiens, UniProt P29372).
T6 construct: made in house
In words: Selectivity screen, glycosylase inhibition in kinetic mode. The format is biochemical. To be noted: compound 30 at 99 µM.

A further series concerns the target T7, NEIL1 (Homo sapiens, UniProt Q96FI4).
T7 construct: made in house
The description is as above. The format is biochemical. To be noted: compound 30 at 99 µM.

The target in the next series is T8, NTHL1 (Homo sapiens, UniProt P78549).
T8 construct: made in house
T8 sequence (P78549 23-304): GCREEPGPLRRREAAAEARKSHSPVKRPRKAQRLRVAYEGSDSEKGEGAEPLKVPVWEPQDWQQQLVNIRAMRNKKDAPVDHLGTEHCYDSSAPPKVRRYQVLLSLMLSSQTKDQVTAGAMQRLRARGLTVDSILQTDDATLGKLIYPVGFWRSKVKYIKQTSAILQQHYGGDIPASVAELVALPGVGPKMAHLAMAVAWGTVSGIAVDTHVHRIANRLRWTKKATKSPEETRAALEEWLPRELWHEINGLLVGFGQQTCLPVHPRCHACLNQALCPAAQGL
The description is as above. It is filed as biochemical. The settings on record: compound 30 at 99 µM.

The next series addresses T9, TDG (Homo sapiens, UniProt Q13569).
T9 construct: made in house
The description is as above. To be noted: compound 30 at 99 µM. It is filed as biochemical.

For a further series, the target named is UNG (Homo sapiens, UniProt P13051). Described as above. The format is biochemical. To be noted: compound 30 at 99 µM.
UNG, sequence (P13051 94-313 limits assumed): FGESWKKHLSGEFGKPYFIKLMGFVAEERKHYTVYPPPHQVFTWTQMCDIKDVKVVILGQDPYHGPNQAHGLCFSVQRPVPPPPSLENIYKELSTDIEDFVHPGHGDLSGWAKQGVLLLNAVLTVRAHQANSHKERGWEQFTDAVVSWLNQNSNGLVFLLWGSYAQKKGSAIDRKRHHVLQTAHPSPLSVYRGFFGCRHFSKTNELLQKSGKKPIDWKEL
The subject of series [3] is BJ-RAS and BJ-TERT cell lines. The series can be described thus: Resazurin cell viability assay for toxicity testing. The format is cell-based. To be noted: for toxicity in words: BJ-TERT and BJ-RAS cells, 30 at 100 μM over several days; for toxicity: incubation in BJ-RAS and BJ-TERT cell lines. Background: Alamar Blue is a resazurin reagent that responds to reducing activity.

The nature of series [4]: Kinetic solubility assay in PBS. To be noted: for solubility at 2 h: phosphate-buffered saline, 25 °C, kinetic from dmso stock, kinetic solubility in PBS buffer (pH 7.4), read-out: aq. solubility. The format is physicochemical.
Series [5] is described as follows: Microsomal stability assay. The format is in vitro ADME, human. To be noted: for half-life at 2 μM: human, liver microsomes. For orientation: Microsomes from liver hold many membrane-bound enzymes, among them those of drug oxidation.
A short description of series [6]: Caco-2 permeability assay. It is filed as in vitro ADME. The settings on record: human, Caco-2, pH 7.4; for efflux ratio at 90 min, 10 μM: P app (B to A) / P app (A to B).
A further series relates to Caco-2 cell line. The series can be described thus: Caco-2 permeability assay. It is filed as in vitro ADME.
Series [7] has as its target T1, OGG1. The series can be described thus: hOGG1 activity assay on radiolabeled 8-oxoG-containing oligonucleotide (urea-PAGE). The format is biochemical. To be noted: for stimulation of OGG1 AP lyase activity (incised substrate after 4 min): 6.25 μM TH10785, 6.25 μM 30, 10 μM 38, 10 nM hOGG1; for incision mode: elimination products of AP-site cleavage.
The next series concerns the target T10, K249A mutant OGG1 (Homo sapiens, UniProt O15527, K249A).
T10 construct: made in house
The series can be described thus: AP-lyase assay on radiolabeled AP-site-containing oligonucleotide (PAGE). It is filed as biochemical. To be noted: Figure S8.

Series [8] addresses T1, OGG1. In words: NaBH4 Schiff-base trapping assay. To be noted: AP or 8-oxoG DNA substrates; 6.25 μM TH10785, 6.25 μM 30, 10 μM 38. It is filed as biochemical.
In another series the target is T11, S326C hOGG1 (Homo sapiens, UniProt O15527, S326C).
T11 construct: made in house
T11 sequence (O15527 whole entry S326C): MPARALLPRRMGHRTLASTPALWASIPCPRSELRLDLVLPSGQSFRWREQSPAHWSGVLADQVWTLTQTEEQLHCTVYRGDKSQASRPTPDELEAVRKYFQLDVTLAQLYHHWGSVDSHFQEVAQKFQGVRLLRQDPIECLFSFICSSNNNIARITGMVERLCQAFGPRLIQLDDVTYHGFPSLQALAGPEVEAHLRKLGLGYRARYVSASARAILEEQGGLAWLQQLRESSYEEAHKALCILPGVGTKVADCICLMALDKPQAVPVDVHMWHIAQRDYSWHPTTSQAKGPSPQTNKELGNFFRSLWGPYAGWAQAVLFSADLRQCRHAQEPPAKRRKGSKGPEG
The series can be described thus: Fluorophore-quencher assay with OGG1 mutants. The settings on record: 0.25 μM of 38, 50 nM S326C hOGG1. It is filed as biochemical.

Series [9] concerns C253Y, F319A, K249W or D268A hOGG1 (active site mutants). In words: Fluorophore-quencher assay with OGG1 mutants. The format is biochemical, human. The settings on record: 0.25 μM of 38, 10 nM enzyme.
The target of the next series is T12, Lys249Trp mutant of OGG1 (Homo sapiens, UniProt O15527, K249W).
T12 construct: made in house
T12 sequence (O15527 whole entry K249W): as the sequence (O15527 whole entry S326C) above, with K249W, C326S counted along it
In words: Fluorophore-quencher assay with OGG1 mutants. It is filed as biochemical. The settings on record: standard fluorescence assay.

Series [10] deals with activated peripheral blood mononuclear cells (human T cells). In words: Activated peripheral blood mononuclear cell proliferation assay. The format is cell-based.
Series [11] in a line: Microsomal stability assay. It is filed as in vitro ADME. The settings on record: pH 7.4; mouse liver microsomes.
The conditions of series [12]: basic nitrogen; cited from earlier work.
[13] abbreviates: Caco-2, in the presence of P-gp inhibitor (verapamil).

Each structure is given as a SMILES string. In brackets after ≈: the same amount, converted by molar mass. Entries after “also recorded” stand apart in the source; their conditions may differ. Read-outs that look alike come from different tables or passages of the source. Some results are limits rather than exact numbers.

By AC50 is commonly meant the midpoint of the concentration-response curve, whichever way the signal moves. A word on the inhibition: it is the change of the read-out against control, counted positive when it falls. Read a low inhibition as little suppression. Broadly, the solubility is how much of the substance goes into solution per volume. Usually microsomal CLint stands for the capacity of the preparation to metabolise the compound, expressed as a volume cleared per time. In general, Papp A→B refers to the apparent permeability from the apical to the basolateral side of a cell layer. A word on the Papp B→A: it is the apparent permeability from the basolateral to the apical side of a cell layer. As usually defined, the efflux ratio is a quotient of directional permeabilities that is used to spot active efflux.

T1 sequence (O15527 whole entry): as the sequence (O15527 whole entry S326C) above, with C326S counted along it
T9 sequence (Q13569 whole entry, species assumed): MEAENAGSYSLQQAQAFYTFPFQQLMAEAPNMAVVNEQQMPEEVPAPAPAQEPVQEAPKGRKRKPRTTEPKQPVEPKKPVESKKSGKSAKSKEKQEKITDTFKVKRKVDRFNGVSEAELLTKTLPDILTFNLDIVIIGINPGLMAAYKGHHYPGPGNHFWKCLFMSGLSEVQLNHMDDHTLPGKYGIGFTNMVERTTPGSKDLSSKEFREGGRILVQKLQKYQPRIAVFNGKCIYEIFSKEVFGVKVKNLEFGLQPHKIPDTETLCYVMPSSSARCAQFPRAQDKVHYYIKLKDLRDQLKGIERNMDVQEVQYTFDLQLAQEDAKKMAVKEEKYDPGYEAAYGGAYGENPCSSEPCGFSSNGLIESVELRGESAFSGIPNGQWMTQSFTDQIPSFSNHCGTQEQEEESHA
T10 sequence (O15527 whole entry K249A): as the sequence (O15527 whole entry S326C) above, with K249A, C326S counted along it
T7 sequence (Q96FI4 whole entry, species assumed): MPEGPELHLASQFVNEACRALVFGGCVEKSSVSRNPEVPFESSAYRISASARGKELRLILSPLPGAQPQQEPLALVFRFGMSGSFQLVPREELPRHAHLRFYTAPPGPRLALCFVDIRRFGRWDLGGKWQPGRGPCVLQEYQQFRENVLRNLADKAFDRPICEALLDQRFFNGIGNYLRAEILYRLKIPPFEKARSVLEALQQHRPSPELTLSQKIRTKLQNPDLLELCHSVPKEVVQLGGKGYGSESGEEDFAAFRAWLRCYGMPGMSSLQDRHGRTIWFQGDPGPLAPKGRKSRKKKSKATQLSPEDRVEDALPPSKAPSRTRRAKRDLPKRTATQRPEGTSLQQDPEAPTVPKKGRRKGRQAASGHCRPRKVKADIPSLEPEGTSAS
T6 sequence (P29372 18-298, species assumed): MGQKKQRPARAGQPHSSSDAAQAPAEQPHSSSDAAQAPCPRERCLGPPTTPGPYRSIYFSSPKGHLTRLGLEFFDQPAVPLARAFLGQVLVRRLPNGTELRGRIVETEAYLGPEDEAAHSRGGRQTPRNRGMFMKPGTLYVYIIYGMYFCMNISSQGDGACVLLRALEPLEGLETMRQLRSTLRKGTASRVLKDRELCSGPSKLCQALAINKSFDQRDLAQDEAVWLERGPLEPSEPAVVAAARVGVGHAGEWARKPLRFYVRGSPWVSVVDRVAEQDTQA

In the case of `NCCc1c(-c2cccnc2)[nH]c2ccc(O)cc12` [Compound 30, 3-(2-Aminoethyl)-2-(pyridin-3-yl)-1H-indol-5-ol], at OGG1 [1], the AcLE was 0.456. In addition, the AC50 on OGG1 [1] (AC50 (CI95%)) stood at 580 nM. In addition, on OGG1 [1] (AC50 ratio), the “improvement of potency over 1” value is listed as 10 fold. Moreover, in series [2], the selectivity was >150-fold. The inhibition result at NUDT15, on NUDT22, at NUDT5 and at APE1 was “No effect” in each case. The inhibition at 99 µM is 34% at MTH1; 17% against MPG; 13% on NEIL1; 25% on NTHL1; 55% on TDG; 31% against UNG. In addition, the toxicity in words result in series [3] is listed as “no detectable toxicity”. This molecule came in with a toxicity in [3] of over 100 µM. The “higher aqueous solubility compared to TH10785” value in series [4] came out at 58 fold. In addition, the solubility at 2 h in series [4] (pH 7.4, aqueous buffer) was over 300 µM. Moreover, the half-life at 2 μM in series [5] (pH 7.4, human liver microsomes, read-out: t 1/2) is 3.55 h; in series [5] (pH 7.4, human microsomes, read-out: microsomal half-life / metabolic stability), over 3.5 h. The k el at 2 μM in series [5] (pH 7.4, human liver microsomes) was 5e-05 s⁻¹. This molecule showed a microsomal CLint at 2 μM in series [5] (pH 7.4, human liver microsomes) of 8 µL/min/mg. For the same molecule, in series [6], the Papp A→B at 90 min, 10 µM worked out at 0.53 ×10⁻⁶ cm/s. Further, the Papp B→A at 90 min, 10 µM in series [6] came out at 2.15 ×10⁻⁶ cm/s. In addition, in [6], the efflux ratio at 90 min, 10 μM was 4.1. The “P app (AB)” value in the series with Caco-2 cell line (setting [13]) worked out at 1.07 ×10⁻⁶ cm/s. The “P app (BA)” value in the series on Caco-2 cell line (setting [13]) amounted to 1.87 ×10⁻⁶ cm/s. Further, in the series with Caco-2 cell line (decrease of efflux with verapamil), the P-gp substrate assessment entry is “P-gp substrate”. In addition, at OGG1 [7], the “stimulation of OGG1 AP lyase activity (incised substrate after 4 min)” value (“stimulation of OGG1 AP lyase activity” for short) was “not significant”. Besides, at OGG1 [7], the incision mode entry was “primarily induced β-elimination and β”. Besides, the “restoration of AP-lyase activity of Lys249Ala mutant” value on K249A mutant OGG1 is “failed to restore AP-lyase activity”. On OGG1 [8], the “effect on level of cross-linked product (Schiff-base formation)” value (from here on “effect on level of cross-linked product”) was “no discernible effect”.

As to `NCCc1c(-c2cccnc2)[nH]c2cc(F)c(O)cc12` [Compound 38, 3-(2-Aminoethyl)-6-fluoro-2-(pyridin-3-yl)-1H-indol-5-ol], the AC50 at OGG1 [1] (read-out: AC50 (CI95%)) was 40 nM. For the same molecule, on OGG1 [7], the “stimulation of OGG1 AP lyase activity” value is reported as “Stimulation of OGG1 AP lyase activity was observed” and the incision mode result is “primarily induced β-elimination”. The “effect on level of cross-linked product” value on OGG1 [8] was “no discernible effect”. For the same molecule, the “effect on AP-lyase activity of Ser326Cys mutant” value at S326C hOGG1 is on record as “accelerated the AP-lyase activity”. In addition, the “restoration of activity in active site mutants” value in series [9] is recorded as “did not restore activity”. Also, at Lys249Trp mutant of OGG1, the “restoration of activity of Lys249Trp mutant” value is reported as “failed to restore activity”.

On to `c1ccc2c(NC3CCCCC3)nc(C3CC3)nc2c1` [TH10785, reference compound], for which the AcLE on OGG1 [1] was 0.419. The AC50 on OGG1 [1] (read-out: AC50 (CI95%)) came out at 870 nM. This molecule had an AcLLE at OGG1 [1] (pAC50 – clogP) of 1.57. Further, the selectivity in [2] is >120-fold. Also, in [3], the toxicity in words entry was “some toxicity” and the toxicity is over 18 µM. Besides, the effect on proliferation result in [10] (CD3/CD28/IL-2 activated cells, 96 h) was “suppresses proliferation in a dose-dependent manner at 10 and 20 μM; also recorded: inhibits proliferation”. Also, in series [10] (value obtained using PBMCs), the toxicity was 20 µM. Further, the solubility at 2 h in series [4] (aqueous buffer) turned out to be 6 µM (≈ 1.6 µg/mL). In addition, in series [5] (pH 7.4, human liver microsomes), the microsomal CLint at 2 μM is 18 µL/min/mg. The same molecule gave a microsomal CLint at 2 μM in [11] of 347 µL/min/mg. Moreover, in [6], the Papp A→B at 90 min, 10 µM worked out at 1.5 ×10⁻⁶ cm/s; the Papp B→A at 90 min, 10 µM stood at 4.9 ×10⁻⁶ cm/s; the efflux ratio at 90 min, 10 μM was determined as 3.3. For the same molecule, at OGG1 [7], the “stimulation of OGG1 AP lyase activity” value was “Stimulation of OGG1 AP lyase activity was observed”; the incision mode entry is “both β and β,δ-elimination products and β,δ”. Besides, the “effect on level of cross-linked product” value on OGG1 [8] is recorded as “no discernible effect”. The pK a result in [12] is given as “≈ 6.55”.
